Laboratory results: US9795619B2, “Pharmaceutical compositions” (priority 2012, dated 2017)

Key:
HIV [1] = conditions: cited from earlier work
HIV [2] = test: human protein adjusted IC90 (reference line in FIG. 1 and FIG. 2); format: cell-based
[3] = LAP Rat PK study, SQ and IM injections (IV values given for reference); parameters: species or system Sprague-Dawley rats; conditions: Sprague-Dawley, in vivo, rat (FIG. 1)
[4] = LAP Dog PK study, SQ and IM injections (IV values given for reference); conditions: in vivo, dose 5 mg/kg, Beagle dogs
Experimental: Injections were also made in Beagle dogs SQ and IM at 5 and 20 mg/kg doses with T1/2, Cmax, Tmax, and AUC measured.

[5] = as above; parameters: species or system Beagle dogs; conditions: in vivo
[6] = LAP Rat PK study, SQ and IM injections (IV values given for reference); conditions: in vivo, Sprague-Dawley rats; for Cmax / Tmax / half-life: n=3
Experimental: Injections were made in Sprague-Dawley rats SQ and IM at 5 and 20 mg/kg doses with T1/2, Cmax, Tmax, and AUC being measured.

[7] = dog, sc, SQ, dose 2.5 mg/kg, Beagle dogs, n=3
[8] = dog, IM, dose 2.5 mg/kg, Beagle dogs, n=3

In the case of `C=C(C)[C@@H]1CC[C@]2(C(=O)O)CC[C@]3(C)[C@H](CC[C@@H]4[C@@]5(C)CC[C@H](OC(=O)CC(C)(C)C(=O)O)C(C)(C)[C@@H]5CC[C@]43C)[C@@H]12` [Bevirimat], the “reduced HIV viral load by a mean of” value (HIV [1]; patients with trough levels >=20 μg/mL and without key baseline Gag polymorphisms at Q369, V370 or T371) is given as 1.3 log10/mL and the “HIV viral load reduction versus patients without Gag polymorphisms” value (HIV [1]; users with Gag polymorphisms at Q369, V370 or T371) is given as “significantly lower load reductions”.

With `CC(C)C1=C2[C@H]3CC[C@@H]4[C@@]5(C)CC[C@H](OC(=O)CC(C)(C)C(=O)O)C(C)(C)[C@@H]5CC[C@@]4(C)[C@]3(C)CC[C@@]2([C@@H](O)CN(CCN(C)C)Cc2ccc(Cl)cc2)CC1=O` [compound of Formula I, 4-(((3aR,5aR,5bR,7aR,9S,11aR,11bR,13aS)-3a-((R)-2-((4-Chlorobenzyl)(2-(dimethylamino)ethyl)amino)-1-hydroxyethyl)-1-isopropyl-5a,5b,8,8,11a-pentamethyl-2-oxo-3,3a,4,5,5a,5b,6,7,7a,8,9,10,11,11a,11b,12,13,13a-octadecahydro-2H-cyclopenta[a]chrysen-9-yl)oxy)-2,2-dimethyl-4-oxobutanoic acid] the “human protein adjusted IC90” value (HIV [2]) was 4.31 ng/mL, the AUC(0-t) ([3]; read-out: AUC0-24 IV) was 2.96 µg·h/mL and the half-life ([3]; read-out: T1/2 IV (converted)) was 3.4 h. It also gave a Cmax ([4]; IM, n=3) of 0.0697 ± 0.0072 µg/mL, a half-life ([4]; IM, n=3) of 118 h and an AUC(0-t) ([4]; IM, t = 36 days) of 16.2 µg·h/mL. It also gave a Cmax ([4]; sc, SQ, n=3) of 0.059 ± 0.0145 µg/mL, a Tmax ([4]; sc, SQ, n=3) of 208 ± 55.4 h and a half-life ([4]; sc, SQ, n=3) of 127 h. For the same molecule, the AUC(0-t) ([4]; sc, SQ, t = 40 days) was 17.4 µg·h/mL, the AUC(0-t) ([5]; Beagle, IV, dog (FIG. 2), read-out: AUC0-24 IV) was 4.15 µg·h/mL and the half-life ([5]; Beagle, IV, dog (FIG. 2), read-out: T1/2 IV (converted)) was 6.9 h. The Cmax [5, 7] was 0.038 ± 0.011 µg/mL, the Tmax [5, 7] was 144 h and the half-life ([5]; dog, sc, SQ, dose 2.5 mg/kg, Beagle dogs, n=3, read-out: T1/2 (converted)) was 96 h. It also gave an AUC(0-t) ([5]; dog, sc, SQ, dose 2.5 mg/kg, Beagle dogs, t = 22 days, read-out: AUC0-t) of 7.9 µg·h/mL, a Cmax [5, 8] of 0.0593 ± 0.0232 µg/mL and a Tmax [5, 8] of 80 ± 13.9 h. The half-life ([5]; dog, IM, dose 2.5 mg/kg, Beagle dogs, n=3, read-out: T1/2 (converted)) was 72 h, the AUC(0-t) ([5]; dog, IM, dose 2.5 mg/kg, Beagle dogs, t = 17 days, read-out: AUC0-t) was 8.6 µg·h/mL and the Tmax ([5]; dog, IM, dose 5 mg/kg, Beagle dogs, n=3) was 128 ± 27.7 h. For the same molecule, the Cmax ([6]; IM, dose 5 mg/kg) was 0.1 ± 0.0078 µg/mL, the Tmax ([6]; IM, dose 5 mg/kg) was 5.3 ± 2.3 h and the half-life ([6]; IM, dose 5 mg/kg) was 149 h. The AUC(0-t) ([6]; IM, dose 5 mg/kg, t printed as '= days' (no number)) was 7.7 µg·h/mL, the Cmax ([6]; IM, dose 20 mg/kg) was 0.178 ± 0.0569 µg/mL and the Tmax ([6]; IM, dose 20 mg/kg) was 8 ± 4 h. The half-life ([6]; IM, dose 20 mg/kg) was 298 h, the AUC(0-t) ([6]; IM, dose 20 mg/kg, t = 42 days) was 24.9 µg·h/mL and the Cmax ([6]; sc, SQ, dose 5 mg/kg) was 0.17 ± 0.0092 µg/mL. For the same molecule, the Tmax ([6]; sc, SQ, dose 5 mg/kg) was 6.7 ± 2.3 h, the half-life ([6]; sc, SQ, dose 5 mg/kg) was 120 h and the AUC(0-t) ([6]; sc, SQ, dose 5 mg/kg, t = 24 days) was 8 µg·h/mL. It also gave a Cmax ([6]; sc, SQ, dose 20 mg/kg) of 0.285 ± 0.0484 µg/mL, a Tmax ([6]; sc, SQ, dose 20 mg/kg) of 6.7 ± 2.3 h and a half-life ([6]; sc, SQ, dose 20 mg/kg) of 463 h. For the same molecule, the AUC(0-t) ([6]; sc, SQ, dose 20 mg/kg, t = 57 days) was 23.9 µg·h/mL.
